Earlier results in patent US11224646B2, “Intranasal delivery of a cyclic-di-nucleotide adjuvanted vaccine for tuberculosis” (priority 2018, dated 2022).

Legend:
[1] = target: T1, murine STING (Mus musculus, UniProt Q3TBT3)
T1 sequence (Q3TBT3 1-378): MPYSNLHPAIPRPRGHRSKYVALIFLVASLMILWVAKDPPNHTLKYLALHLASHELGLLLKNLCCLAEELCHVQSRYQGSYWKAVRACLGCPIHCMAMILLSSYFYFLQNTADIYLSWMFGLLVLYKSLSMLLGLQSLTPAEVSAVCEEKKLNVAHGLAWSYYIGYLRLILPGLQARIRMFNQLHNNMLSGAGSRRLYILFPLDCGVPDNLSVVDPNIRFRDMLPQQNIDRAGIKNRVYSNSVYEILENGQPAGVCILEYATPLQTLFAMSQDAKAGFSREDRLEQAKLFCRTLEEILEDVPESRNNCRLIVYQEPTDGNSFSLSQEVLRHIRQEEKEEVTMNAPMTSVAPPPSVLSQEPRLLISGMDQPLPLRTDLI

[2] = test system: five common human STING alleles
[3] = test system: phosphodiesterases

Compound	activation of murine STING [1]	engagement / activation of the five common human STING alleles [2]	hydrolysis by phosphodiesterases [3]
Nc1nc2c(ncn2[C@@H]2O[C@@H]3CO[P@@](=O)(S)O[C@H]4[C@@H](O)[C@H](n5cnc6c(=O)[nH]c(N)nc65)O[C@@H]4CO[P@@](=O)(S)O[C@H]3[C@H]2O)c(=O)[nH]1 [RR-CDG, dithio-[RP, RP]-cyclic-[G(3′,5′)pG(3′,5′)p]]	efficiently activates murine STING	does not engage all five common STING alleles	–
Nc1nc2c(ncn2[C@@H]2O[C@@H]3COP(=O)(S)O[C@H]4[C@@H](O)[C@H](n5cnc6c(N)ncnc65)O[C@@H]4CO[P@@](=O)(S)O[C@@H]2[C@@H]3O)c(=O)[nH]1 (stereo partly drawn) [ML-RR-cGAMP, dithio-[RP, RP]-cyclic-[G(2′,5′)pA(3′,5′)p]]	–	–	resistant to hydrolysis by phosphodiesterases
